Reference: patent US10660874B2, “Ecteinamycin, compositions and uses thereof” (Wisconsin Alumni Research Foundation, priority 2014, dated 2020)
Converted amounts (≈) assume the structure as drawn.

Key:
E. coli (ATCC #25922) = assay: MIC, dilution antimicrobial susceptibility test; type: cell-based; conditions: Escherichia coli, ATCC25922, 33° C., 18 h
Procedure: (§1) Ecteinamycin was tested for antibacterial activity against C. difficile (ATCC BAA-1870), MRSA (ATCC #33591), MSSA (ATCC #29213), E. coli (ATCC #25922), P. aeruginosa (ATCC #27853), and VRE (ATCC), and MICs were determined using a dilution antimicrobial susceptibility test for aerobic (MRSA, MSSA, E. coli, P. aeruginosa, and VRE) and anaerobic (C. difficile) bacteria. Ecteinamycin was dissolved in DMSO, serially diluted to 10 concentrations (0.0313-32 μg/mL), and tested in a 96-well plate. […] Ecteinamycin and vancomycin were tested in triplicate. Six untreated media controls were included on each plate. For MRSA, MSSA, E. coli, and P. aeruginosa, the plates were incubated at 33° C. for 18 h. For C. difficile, the plate was incubated at 36° C. for 48 h anaerobically and then read visually using a mirror apparatus. All manipulations to the plate were done inside the anaerobe chamber. The MIC was determined as the lowest concentration that inhibited visible growth.

[1] = test system: P. aeruginosa (ATCC #27853); assay: MIC, dilution antimicrobial susceptibility test; type: cell-based; conditions: Pseudomonas aeruginosa, ATCC27853, 33° C., 18 h
Procedure: as §1

MSSA (ATCC #29213) = assay: MIC, dilution antimicrobial susceptibility test; type: cell-based, Methicillin-sensitive Staphylococcus aureus; conditions: Methicillin-sensitive Staphylococcus aureus (MSSA); 33° C., 18 h; read-out: MIC
Procedure: as §1

MRSA (ATCC #33591) = assay: MIC, dilution antimicrobial susceptibility test; type: cell-based, Methicillin-resistant Staphylococcus aureus; conditions: Staphylococcus aureus, 18 h
Procedure: as §1

[2] = test system: C. difficile (ATCC BAA-1870); assay: MIC, anaerobic dilution antimicrobial susceptibility test; type: cell-based; conditions: Clostridioides difficile
Procedure: as §1

[3] = Pharmacokinetic study in mice, ecteinamycin in plasma; type: in vivo; conditions: female, FVB, mouse, oral 5 mg/kg vs retro-orbital IV 2.5 mg/kg, dose adjusted
Procedure: An Agilent 1100 LCMS system (ESI-MS positive mode) with a Phenomenex Kinetix C18 column (100×4.6 mm, 2.6 μm) at a flow rate of 0.5 mL/min was used for all analysis. The gradient was from 75% MeOH/25% 1 mM ammonium acetate in H2O to 93% MeOH/7% 1 mM ammonium acetate in H2O in 11 mins, then 93% MeOH/7% 1 mM ammonium acetate in H2O to 100% MeOH for 0.1 min and holding 100% MeOH for 3.9 mins.
A standard curve was constructed using known concentrations of ecteinamycin (1000, 500, 250, 125, 62.50, 31.25, 15.625, 7.8125, 3.90625 ng/mL) in blank human plasma. Linear regression analysis was performed on the peak areas, and the resulting linear equation was used to calculate the ecteinamycin concentrations of quality control (QC) standards of ecteinamycin in human plasma (800, 200, 25, 12.5 ng/mL). The limit of detection was determined to be 31.25 ng/mL, and the limit of quantification was determined to be 62.50 ng/mL.
Eight-to-nine-week-old FVB female mice weighing 20.5 to 25.6 g were used for all studies. […]
Ecteinamycin was formulated with polyethylene glycol (PEG) 300, 25 mM Tris (1:1), pH 8.9. […] Sample quantitation was determined by weighted (R^2) linear regression using a 9-point curve. […] The % oral bioavailability was calculated from the concentration of ecteinamycin (adjusted for dose) in plasma between oral and IV dose: [ecteinamycinoral]/[ecteinamycinIV]×100. […]

C=C1OC(=O)C(C(=O)CC2OC(C(C)C(O)C(CC)C(=O)C(C)(O)C3CCC(CC)(C4CCC(O)(C(C)OC)C(C)O4)O3)C(C)CC2C)=C1O (centres unmarked) [ecteinamycin]
MIC (E. coli (ATCC #25922)): 16 µg/mL (≈ 22.6 µM) | MIC [1]: 8 µg/mL (≈ 11.3 µM) | MIC (MSSA (ATCC #29213)): 0.125 µg/mL (≈ 0.176 µM) | MIC (MRSA (ATCC #33591)): 0.125 µg/mL (≈ 0.176 µM) | MIC ([2]; ATCCBAA1870): ≤ 0.031 µg/mL | MIC ([2]; ATCCBAA1870, 36° C., 48 h anaerobically): ≤ 0.0313 µg/mL | bioavailability at 30 min ([3]; after 30 mins): 10.9% | bioavailability at 1 h ([3]; after 1 h): 29.3%
